According to paper PMC5469750, “Antibacterial and detoxifying activity of NZ17074 analogues with multi-layers of selective antimicrobial actions against Escherichia coli and Salmonella enteritidis” (Scientific Reports, 2017):
Converted amounts (≈) assume the structure as drawn. Where a SMILES comes first, the peptide text is derived from it. Bridges are numbered along the chain shown (N, C = ends). Where no end group is shown, it is not given here.

Tests used:
[1] = test system: E. coli CVCC195; format: cell-based, Escherichia coli; conditions: CVCC195, 3 h, 1
Experimental: (§1) Radioactive precursors were added into cells (1 μCi/ml) and shaken at 37 °C for 20 min. Ice-cold 25% trichloroacetic acid (TCA) was added and placed on ice for 30 min. The cells were centrifuged and washed twice with ice-cold 25% TCA. After drying, the samples were mixed with scintillation fluid and counted for their radioactivity using a MicroBeta 1450 scintillation counter (Perkin Elmer)[62].

[2] = test system: S. enteritidis CVCC3377; format: cell-based, Salmonella enteritidis; conditions: CVCC3377, 3 h, 1
Experimental: as §1

[3] = test system: S. aureus ATCC25923; format: cell-based, Staphylococcus aureus; conditions: ATCC25923
Experimental: (§2) The antimicrobial activity of peptides was determined by the microbroth dilution method. The bacterial strains were incubated in Mueller-Hinton (MH) medium at 37 °C overnight until the mid-log phase (OD600 nm reading of 0.5). Bacteria were diluted to 1 × 10^5 CFU/ml and added into 96-well plates, followed by the addition of serial dilutions of peptides (from 0.0625 to 128 μg/ml). The plates were incubated at 37 °C for 18–24 h. The MIC value was determined as the lowest peptide concentration at which no bacterial growth was observed. All tests were conducted in triplicate.

[4] = test system: S. enteritidis CVCC3377; format: cell-based, Salmonella enteritidis; conditions: CVCC3377
Experimental: as §2

[5] = test system: Escherichia coli CVCC195; format: cell-based; conditions: CVCC195
Experimental: as §2

[6] = test system: Salmonella typhimurium ATCC14028; format: cell-based; conditions: ATCC14028
Experimental: as §2

[7] = test system: S. pullorum CVCC1789; format: cell-based; conditions: CVCC1789
Experimental: as §2

[8] = test system: Enterococcus faecium CMCC1.2136; format: cell-based; conditions: CMCC1.2136
Experimental: as §2

[9] = test system: Bacillus subtilis ATCC6633; format: cell-based; conditions: ATCC6633
Experimental: as §2

[10] = test system: Pseudomonas aeruginosa CICC10419; format: cell-based; conditions: CICC10419
Experimental: as §2

[11] = test system: S. suis CVCC606; format: cell-based
Experimental: as §2

[12] = test system: Listeria ivanovii ATCC19119; format: cell-based; conditions: ATCC19119
Experimental: as §2

[13] = test system: S. pullorum CVCC1802; format: cell-based; conditions: CVCC1802
Experimental: as §2

[14] = test system: Staphylococcus aureus ATCC43300; format: cell-based; conditions: ATCC43300
Experimental: as §2

[15] = test system: Candida albicans CGMCC2.2411; format: cell-based; conditions: CGMCC2.2411
[16] = test system: E. coli CVCC1515; format: cell-based, Escherichia coli; conditions: CVCC1515
Experimental: as §2

[17] = test system: P. aeruginosa CICC21630; format: cell-based, Pseudomonas aeruginosa; conditions: CICC21630
Experimental: as §2

[18] = test system: S. choleraesuis CVCC503; format: cell-based; conditions: CVCC503
Experimental: as §2

[19] = LPS binding, BODIPY-TR-cadaverine (BC) displacement; conditions: negative control; 50 mM Tris buffer pH 7.4
Experimental: Equal volumes of 40 μg/ml LPS and 10 μM BC in 50 mM Tris buffer (pH 7.4) were mixed, added into 96-well plates and incubated in the dark for 4 h at room temperature. […] Fluorescence was then measured using a microplate reader (excitation/emission, 580/620 nm). The occupancy rate was calculated by the following equation: BC displacement rate (%) = (1 − (F0 − F)/(F0 − Fmax)) × 100, wherein F0 is the fluorescence intensity of the solution of BC alone; Fmax is the fluorescence intensity in the presence of LPS at the saturation concentration, and F is the intensity of LPS:BC mixtures at varying displacer concentrations.

[20] = test system: E. coli CICC21530 (serotype O157:H7); format: cell-based, Escherichia coli; conditions: microbroth dilution, MH medium, 1 × 10^5 CFU/ml, 37 °C, 18–24 h; representative of three independent experiments
Experimental: as §2

| Compound | MIC [3] [µg/mL] | MIC [4] [µg/mL] | MIC [5] [µg/mL] | MIC [6] [µg/mL] | MIC [7] [µg/mL] | MIC [8] [µg/mL] | MIC [9] [µg/mL] | MIC [10] [µg/mL] | MIC [11] [µg/mL] | MIC [12] [µg/mL] | MIC [13] [µg/mL] | MIC [14] [µg/mL] | MIC [15] [µg/mL] | MIC [16] [µg/mL] | MIC [17] [µg/mL] | MIC [18] [µg/mL] | other results |
| --- | --- | --- | --- | --- | --- | --- | --- | --- | --- | --- | --- | --- | --- | --- | --- | --- | --- |
| CC(C)[C@@H]1NC(=O)[C@H](C)NC(=O)[C@H](CC(N)=O)NC(=O)[C@H](CCCNC(=N)N)NC(=O)[C@H](Cc2ccc(O)cc2)NC(=O)[C@H](C(C)C)NC(=O)[C@@H]2CSSC[C@H](NC(=O)[C@H](C(C)C)NC(=O)[C@H](CCCNC(=N)N)NC1=O)C(=O)N[C@@H](Cc1c[nH]cn1)C(=O)N[C@@H](CCCNC(=N)N)C(=O)N[C@@H](CCCNC(=N)N)C(=O)N[C@H](C(=O)N[C@@H](CC(N)=O)C(=O)O)CSSC[C@H](NC(=O)[C@H](Cc1ccccc1)NC(=O)[C@H](C)N)C(=O)N[C@@H](Cc1c[nH]c3ccccc13)C(=O)N[C@@H](CC(N)=O)C(=O)N[C@@H](C(C)C)C(=O)N2 [N2] (H-AFCWNVCVYRNAVRVCHRRCN-OH; disulfide 3-20, 7-16) | 0.25 (≈ 0.0974 µM) | 0.125 (≈ 0.0487 µM) | 0.25 (≈ 0.0974 µM) | 1 (≈ 0.39 µM) | 0.5 (≈ 0.195 µM) | 4 (≈ 1.56 µM) | 0.5 (≈ 0.195 µM) | 2 (≈ 0.779 µM) | 16 (≈ 6.24 µM) | 4 (≈ 1.56 µM) | 0.25 (≈ 0.0974 µM) | 16 (≈ 6.24 µM) | 32 (≈ 12.5 µM) | 0.5 (≈ 0.195 µM) | 2 (≈ 0.779 µM) |  | inhibition of 3H-thymidine incorporation (DNA synthesis) [1]: 28.6%; inhibition of 3H-uridine incorporation (RNA synthesis) [1]: 18.7%; inhibition of DNA synthesis (3H-thymidine) [2]: 35.5%; inhibition of protein synthesis (3H-leucine) [2]: 17.0% |
| CC(C)[C@@H]1NC(=O)CNC(=O)[C@H](CC(N)=O)NC(=O)[C@H](CCCNC(=N)N)NC(=O)[C@H](Cc2ccc(O)cc2)NC(=O)[C@H](C(C)C)NC(=O)[C@@H]2CSSC[C@H](NC(=O)[C@H](C(C)C)NC(=O)[C@H](CCCNC(=N)N)NC1=O)C(=O)N[C@@H](Cc1c[nH]cn1)C(=O)N[C@@H](CCCNC(=N)N)C(=O)N[C@@H](CCCNC(=N)N)C(=O)N[C@H](C(=O)N[C@@H](CC(N)=O)C(=O)O)CSSC[C@H](NC(=O)[C@H](Cc1ccccc1)NC(=O)CN)C(=O)N[C@@H](CCCCN)C(=O)N[C@@H](C)C(=O)N[C@@H](C(C)C)C(=O)N2 [N3] (H-GFCKAVCVYRNGVRVCHRRCN-OH; disulfide 3-20, 7-16) | 0.25 (≈ 0.103 µM) | 0.5 (≈ 0.205 µM) | 1 (≈ 0.41 µM) | 4 (≈ 1.64 µM) | 2 (≈ 0.821 µM) | 8 (≈ 3.28 µM) | 2 (≈ 0.821 µM) | >16 | 16 (≈ 6.57 µM) | 8 (≈ 3.28 µM) | 1 (≈ 0.41 µM) | >16 | >16 | 1 (≈ 0.41 µM) | 16 (≈ 6.57 µM) |  |  |
| CC(C)[C@@H]1NC(=O)CNC(=O)[C@H](CC(N)=O)NC(=O)[C@H](CCCNC(=N)N)NC(=O)[C@H](Cc2ccc(O)cc2)NC(=O)[C@H](C(C)C)NC(=O)[C@@H]2CSSC[C@H](NC(=O)[C@H](C(C)C)NC(=O)[C@H](CCCNC(=N)N)NC1=O)C(=O)N[C@@H](Cc1c[nH]cn1)C(=O)N[C@@H](CCCNC(=N)N)C(=O)N[C@@H](CCCNC(=N)N)C(=O)N[C@H](C(=O)N[C@@H](CC(N)=O)C(=O)O)CSSC[C@H](NC(=O)[C@H](Cc1ccccc1)NC(=O)CNC(=O)[C@@H](N)Cc1c[nH]c3ccccc13)C(=O)N[C@@H](Cc1c[nH]c3ccccc13)C(=O)N[C@@H](CC(N)=O)C(=O)N[C@@H](C(C)C)C(=O)N2 [N4] (H-WGFCWNVCVYRNGVRVCHRRCN-OH; disulfide 4-21, 8-17) | 1 (≈ 0.367 µM) | 0.25 (≈ 0.0918 µM) | 1 (≈ 0.367 µM) | 2 (≈ 0.734 µM) | 1 (≈ 0.367 µM) |  | 1 (≈ 0.367 µM) |  |  |  | 2 (≈ 0.734 µM) | 8 (≈ 2.94 µM) |  | 1 (≈ 0.367 µM) | 4 (≈ 1.47 µM) |  |  |
| CC(C)[C@@H]1NC(=O)CNC(=O)[C@H](CC(N)=O)NC(=O)[C@H](CCCNC(=N)N)NC(=O)[C@H](Cc2ccc(O)cc2)NC(=O)[C@H](C(C)C)NC(=O)[C@@H](NC(=O)[C@@H](NC(=O)[C@H](CC(N)=O)NC(=O)[C@H](Cc2c[nH]c3ccccc23)NC(=O)[C@H](C)NC(=O)[C@H](Cc2ccccc2)NC(=O)CN)C(C)C)CSSC[C@@H](C(=O)N[C@@H](Cc2c[nH]cn2)C(=O)N[C@@H](CCCNC(=N)N)C(=O)N[C@@H](CCCNC(=N)N)C(=O)N[C@@H](C)C(=O)N[C@@H](CC(N)=O)C(=O)O)NC(=O)[C@H](C(C)C)NC(=O)[C@H](CCCNC(=N)N)NC1=O [N6] (H-GFAWNVCVYRNGVRVCHRRAN-OH; disulfide 7-16) | 0.25 (≈ 0.101 µM) | 0.25 (≈ 0.101 µM) | 0.5 (≈ 0.202 µM) | 2 (≈ 0.808 µM) | 0.5 (≈ 0.202 µM) | 4 (≈ 1.62 µM) | 0.5 (≈ 0.202 µM) | 8 (≈ 3.23 µM) | 16 (≈ 6.46 µM) |  | 0.5 (≈ 0.202 µM) | 16 (≈ 6.46 µM) | 64 (≈ 25.8 µM) | 1 (≈ 0.404 µM) | 4 (≈ 1.62 µM) | 2 (≈ 0.808 µM) | inhibition of 3H-thymidine incorporation (DNA synthesis) [1]: 43.8%; inhibition of DNA synthesis (3H-thymidine) [2]: 61.8%; inhibition of RNA biosynthesis (3H-uridine) [2]: 5.7% |
| CC(C)[C@@H]1NC(=O)CNC(=O)[C@H](CC(N)=O)NC(=O)[C@H](CCCNC(=N)N)NC(=O)[C@H](Cc2ccc(O)cc2)NC(=O)[C@H](C(C)C)NC(=O)[C@H](C)NC(=O)[C@H](C(C)C)NC(=O)[C@H](CC(N)=O)NC(=O)[C@H](Cc2c[nH]c3ccccc23)NC(=O)[C@@H](NC(=O)[C@H](Cc2ccccc2)NC(=O)CN)CSSC[C@@H](C(=O)N[C@@H](CC(N)=O)C(=O)O)NC(=O)[C@H](CCCNC(=N)N)NC(=O)[C@H](CCCNC(=N)N)NC(=O)[C@H](Cc2c[nH]cn2)NC(=O)[C@H](C)NC(=O)[C@H](C(C)C)NC(=O)[C@H](CCCNC(=N)N)NC1=O [N7] (H-GFCWNVAVYRNGVRVAHRRCN-OH; disulfide 3-20) | 0.5 (≈ 0.202 µM) | 0.5 (≈ 0.202 µM) | 2 (≈ 0.808 µM) | 8 (≈ 3.23 µM) | 4 (≈ 1.62 µM) | 2 (≈ 0.808 µM) | 2 (≈ 0.808 µM) | >64 | 8 (≈ 3.23 µM) | 2 (≈ 0.808 µM) | 4 (≈ 1.62 µM) | >64 | >16 | 2 (≈ 0.808 µM) | >64 | 16 (≈ 6.46 µM) |  |
| CC1(C)S[C@@H]2[C@H](NC(=O)[C@H](N)c3ccccc3)C(=O)N2[C@H]1C(=O)O [ampicillin] |  |  |  |  |  |  |  |  |  |  |  |  |  |  |  |  | BC displacement / binding to LPS [19]: did not displace BC |
| GFAWNVAVYRNGVRVAHRRAN [N8] | 2 | 1 | 32 | >64 | >128 | 16 | 4 | >128 | >128 |  | 32 | >64 |  | 16 | >128 | >64 | MIC [20]: 16 µg/mL |
| GFWNVVYRNGVRVHRRN [N5] | 2 | 4 | 64 | 128 | >128 | 64 | 64 | >128 | >128 | 128 | >128 | >128 | >128 | 128 | >128 | >128 | MIC [20]: 64 µg/mL |
